The record followed here is patent publication US20100311749A1, “4-BENZOYL-1-SUBSTITUTED-PIPERAZIN-2-ONE DERIVATIVES AS P2X7 MODULATORS” (priority 2007, published 2010).

Counter-ions that a name gives are not always drawn.

The target in the experiment is T1, human P2X7 receptor (Homo sapiens, UniProt Q99572).
T1 construct: expressed in transfected cells
T1 sequence (Q99572 1-595): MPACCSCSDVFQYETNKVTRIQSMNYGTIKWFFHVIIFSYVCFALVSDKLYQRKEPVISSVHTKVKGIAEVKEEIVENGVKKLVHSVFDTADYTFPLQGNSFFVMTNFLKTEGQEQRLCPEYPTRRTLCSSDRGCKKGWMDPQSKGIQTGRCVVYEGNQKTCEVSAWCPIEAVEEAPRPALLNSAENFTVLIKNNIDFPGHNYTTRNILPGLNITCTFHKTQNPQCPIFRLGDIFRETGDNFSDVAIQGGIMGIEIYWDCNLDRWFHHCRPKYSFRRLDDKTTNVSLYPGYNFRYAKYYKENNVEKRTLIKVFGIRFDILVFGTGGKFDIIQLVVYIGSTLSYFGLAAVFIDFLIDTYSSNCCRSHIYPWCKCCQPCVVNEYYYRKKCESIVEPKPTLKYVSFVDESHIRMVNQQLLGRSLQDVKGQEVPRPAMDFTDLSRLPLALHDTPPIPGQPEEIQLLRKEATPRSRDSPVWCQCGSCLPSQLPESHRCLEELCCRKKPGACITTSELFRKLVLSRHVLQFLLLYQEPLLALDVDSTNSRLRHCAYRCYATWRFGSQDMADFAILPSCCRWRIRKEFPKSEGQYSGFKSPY
Kind of experiment: Ethidium Accumulation Assay. The class given is cell-based. The settings on record: HEK293 cells stably expressing human recombinant P2X7 receptors; 1 mM ATP; values given as 'about'; read-out: pIC50 for human P2X7 receptor antagonist activity (blocking ATP responses) in the Ethidium Accumulation Assay (converted). Here is the method: Studies were performed using NaCl assay buffer of the following composition: 140 mM NaCl, 10 mM HEPES [4-(2-hydroxyethyl)-1-piperazine-1-ethanesulfonic acid], 5 mM N-methyl-D-glucamine, 5.6 mM KCl, 10 mM D-glucose, 0.5 mM CaCl2 (pH 7.4).
Human Embryonic Kidney (HEK) 293 cells, stably expressing human recombinant P2X7 receptors, were grown in poly-D-lysine pre-treated 96 well plates for 18-24 hours. […] The cells were washed twice with 350 μl of the assay buffer, before addition of 50 μl of the assay buffer containing the putative P2X7 receptor antagonist compound. (A small amount of dimethyl sulfoxide, for initially dissolving the compound, is optionally used and present in this 50 μl test compound sample.) The cells were then incubated at room temperature (19-21° C.) for 30 min before addition of ATP and ethidium (100 μM final assay concentration). The ATP concentration was chosen to be close to the EC80 for the receptor type and was 1 mM for studies on the human P2X7 receptor. Incubations were continued for 8 or 16 min and were terminated by addition of 25 μl of 1.3M sucrose containing 4 mM of the P2X7 receptor antagonist Reactive Black 5 (Aldrich). […] Antagonist pIC50 values for blocking ATP responses were determined using iterative curve fitting techniques.
For `O=C(c1cccc(Cl)c1Cl)N1CCN(c2ccc(Cl)cc2)C(=O)C1` [Example 7, 1-(4-Chlorophenyl)-4-[(2,3-dichlorophenyl)carbonyl]-2-piperazinone], the IC50 was 0.00501 to 0.2 µM. Consider `CN1CCN(C(=O)c2cccc(Cl)c2Cl)CC1=O` [Example 16, 4-[(2,3-Dichlorophenyl)carbonyl]-1-methyl-2-piperazinone], for which the IC50 is 0.00501 to 0.2 µM. To `Cc1ccc(-c2cccc(N3CCN(C(=O)c4cccc(C(F)(F)F)c4Cl)CC3=O)c2C)cn1` [Example 84, 4-{[2-chloro-3-(trifluoromethyl)phenyl]carbonyl}-1-[2-methyl-3-(6-methyl-3-pyridinyl)phenyl]-2-piperazinone] belongs 0.00251 to 0.1 µM. To `O=C(c1cccc(Cl)c1Cl)N1CCN(c2cccc(Cl)c2)C(=O)C1` [Example 14, 1-(3-Chlorophenyl)-4-[(2,3-dichlorophenyl)carbonyl]-2-piperazinone] belongs 0.00501 to 0.2 µM; to `Cc1ccc(Br)cc1N1CCN(C(=O)c2cccc(C(F)(F)F)c2Cl)CC1=O` [Example 53, 1-(5-bromo-2-methylphenyl)-4-{[2-chloro-3-(trifluoromethyl)phenyl]carbonyl}-2-piperazinone], 0.00251 to 0.1 µM. The result for `Cc1ccc(-c2ccc(C)c(N3CCN(C(=O)c4cccc(C(F)(F)F)c4Cl)CC3=O)c2)cn1` [Example 74, 4-{[2-chloro-3-(trifluoromethyl)phenyl]carbonyl}-1-[2-methyl-5-(6-methyl-3-pyridinyl)phenyl]-2-piperazinone hydrochloride] reads 0.00251 to 0.1 µM.

In the case of `Cc1ccc(N2CCCC2)cc1N1CCN(C(=O)c2cccc(C(F)(F)F)c2Cl)CC1=O` [Example 73, 4-{[2-chloro-3-(trifluoromethyl)phenyl]carbonyl}-1-[2-methyl-5-(1-pyrrolidinyl)phenyl]-2-piperazinone], the IC50 is 0.00251 to 0.1 µM. To `O=C1CN(C(=O)c2cccc(Cl)c2Cl)CCN1Cc1ccc(F)cc1Cl` [Example 15, 1-[(2-Chloro-4-fluorophenyl)methyl]-4-[(2,3-dichlorophenyl)carbonyl]-2-piperazinone] belongs 0.00501 to 0.2 µM; to `O=C(c1cccc(Cl)c1Cl)N1CCN(c2cc(N3CCOCC3)ccc2Cl)C(=O)C1` [Example 76, 1-[2-chloro-5-(4-morpholinyl)phenyl]-4-[(2,3-dichlorophenyl)carbonyl]-2-piperazinone], 0.00251 to 0.1 µM. As for `O=C1CN(C(=O)c2cccc(C(F)(F)F)c2Cl)CCN1CC1CC1` [Example 48, 4-{[2-chloro-3-(trifluoromethyl)phenyl]carbonyl}-1-(cyclopropylmethyl)-2-piperazinone], the IC50 was 0.00251 to 0.1 µM. In the case of `O=C(c1cccc(Cl)c1Cl)N1CCN(c2ccc(F)cc2F)C(=O)C1` [Example 19, 4-[(2,3-Dichlorophenyl)carbonyl]-1-(2,4-difluorophenyl)-2-piperazinone], the IC50 was 0.00501 to 0.2 µM. The result for `CCC(CC)N1CCN(C(=O)c2cccc(C(F)(F)F)c2Cl)CC1=O` [Example 47, 4-{[2-chloro-3-(trifluoromethyl)phenyl]carbonyl}-1-(1-ethylpropyl)-2-piperazinone] reads 0.00251 to 0.1 µM; that for `Cc1c(N2CCOCC2)cccc1N1CCN(C(=O)c2cccc(C(F)(F)F)c2Cl)CC1=O` [Example 81, 4-{[2-chloro-3-(trifluoromethyl)phenyl]carbonyl}-1-[2-methyl-3-(4-morpholinyl)phenyl]-2-piperazinone], 0.00251 to 0.1 µM.

Take `Cc1cc(F)ccc1N1CCN(C(=O)c2cccc(Cl)c2Cl)CC1=O` [Example 28, 4-[(2,3-dichlorophenyl)carbonyl]-1-(4-fluoro-2-methylphenyl)-2-piperazinone]: the IC50 is 0.00251 to 0.1 µM.
